Reference: patent publication US6461593B1, “Therapy with coenzyme Q10 to reduce subgingival microorganisms in patients with periodontal disease” (Biomedical and Clinical Research, priority 1992, dated 2002)
Where “and” joins values, the source holds several entries; their conditions need not be identical. Equal entries are not always repeated. Entries after “also recorded” stand apart in the source; their conditions may differ.

Experiments:
[1] = cited from earlier work
[2] = tested on: motile rods; assay: Phase contrast microscopy of subgingival plaque: motile rods; type: in vivo, human
Experimental: (§1) Twenty-two systemically healthy patients with periodontal disease, 11 males and 11 females, ages 33 to 66, participated in this trial. These volunteers were treated orally with 100 mg of CoQ10 per day for two months. Informed consent forms were signed prior to the study. Periodontal examinations and peripheral blood analyses were made before and during the trial. During the trial, the patients were not provided any routine periodontal treatment, and the staff gave them no information about oral hygiene to the patients.
(§2) The gingival index (8) and plaque index (9) were criteria to assess to degrees of gingival inflammation and accumulation of plaque on the teeth, respectively. The periodontal pocket depth was measured in interdental regions of buccal gingiva. The deepest pocket which was measured before administration of CoQ10 was selected for direct examination of oral bacteria by a microscope. The subgingival plaques were obtained with a curette, and were then dispersed in physiological saline which contained 1% gelatin, and were then prepared for analysis by phase contrast microscopy. The biopsies were viewed by means of a DS/300 microscope system (Dental Scientific Systems, Inc., VA) at 400× magnification. […]

[3] = patients with AIDS and the AIDS-related complex; cited from earlier work
[4] = oral administration (ref 14); cited from earlier work
[5] = tested on: subgingival microorganisms; assay: Phase contrast microscopy of subgingival plaque: total motile microorganisms; type: in vivo, human; design: key to Total subgingival microorganism score, 2 Months: 0 = no cells, 1 = 1-9, 2 = 10-39, 3 = >40 cells per category
Experimental: as §1, §2

[6] = Gingival index in patients with periodontal disease, oral CoQ10 trial; type: in vivo, human; design: Gingival Index, 2 Months: scale not given here
Experimental: as §1
(§3) The gingival index (8) and plaque index (9) were criteria to assess to degrees of gingival inflammation and accumulation of plaque on the teeth, respectively. The periodontal pocket depth was measured in interdental regions of buccal gingiva. The deepest pocket which was measured before administration of CoQ10 was selected for direct examination of oral bacteria by a microscope. The subgingival plaques were obtained with a curette, and were then dispersed in physiological saline which contained 1% gelatin, and were then prepared for analysis by phase contrast microscopy. The biopsies were viewed by means of a DS/300 microscope system (Dental Scientific Systems, Inc., VA) at 400× magnification. Small spirochetes, large spirochetes, spinning rods, spiral rods, small gliding rods, large gliding rods and palisading rods were identified as based upon cellular morphology and active motility. The following scores were used in each category: 0, no bacterial cells; 1, 1-9 cells; 2, 10-39 cells; and 3, more than 40 cells.
(§4) A paired-t test was used for the statistical analysis of differences in the gingival index, the plaque index, the blood CoQ10 levels, and the T4/TS ratios before and after the administration. The Wilcoxson test was used to test scores in microscopic analysis.

[7] = tested on: Plasmodium berghei; settings: mice infected with Plasmodium berghei; cited from earlier work
[8] = Blood CoQ10 level; type: in vivo, human
Experimental: as §1
(§5) About 3 ml of peripheral blood was drawn for determination of CoQ10 levels and the T4/T8 ratios. The determination of the COQ10 level was performed as described by Ye et al. (10). T4(CD4) and T8 (CD8) monoclonal antibodies were purchased from Coulter Immunology, Hialeah, Fla. The lymphocytes were stained according to the two-color fluorescence, and the flow cytometric analysis was performed on an Epics Profile cell sorter (Coulter Electronics Inc., Hileah, Fla.).The sample preparations and staining procedures were performed as described by Parker et al. (11).
as §4

[9] = Periodontal pocket depth in patients with periodontal disease, oral CoQ10 trial; type: in vivo, human
Experimental: as §1, §3

[10] = Plaque index in patients with periodontal disease, oral CoQ10 trial; type: in vivo, human; design: Plaque Index, 2 Months: scale not given here
Experimental: as §1, §3, §4

[11] = tested on: T4/T8 lymphocytes; assay: T4/T8 lymphocyte ratio in peripheral blood by flow cytometry; type: in vivo, human
Experimental: as §1, §5, §4

[12] = tested on: spirochetes; assay: Phase contrast microscopy of subgingival plaque: spirochetes; type: in vivo, human
Experimental: as §1, §2

[13] = tested on: tumors induced by dibenzpyrene; settings: cited from earlier work
[14] = oral administration (ref 5); cited from earlier work
[15] = 22 patients, 100 mg orally for two months, p<0.01
[16] = individual patients, sum of category scores (0 no motile cells, 1 1-9, 2 10-39, 3 more than 40 cells per microscopic field), 100 mg/day orally
[17] = individual patients (one line per ID #), 100 mg CoQ10 per day orally for 2 months
[18] = 22 patients, 100 mg orally for two months, p<0.001
[19] = individual patients, peripheral blood, 100 mg CoQ10 per day orally

## COC1=C(OC)C(=O)C(C/C=C(\C)CC/C=C(\C)CC/C=C(\C)CC/C=C(\C)CC/C=C(\C)CC/C=C(\C)CC/C=C(\C)CC/C=C(\C)CC/C=C(\C)CCC=C(C)C)=C(C)C1=O [CoQ10, coenzyme Q10]
[1]; earlier clinical trials (refs 2,3,5)
  Gingival inflammation: improvement
[1]; earlier clinical trials (refs 2-5)
  Periodontal pocket depth: improvement
[1]; earlier clinical trials (refs 3-5)
  Tooth mobility: improvement
[2]; [15]
  Change of motile rods: decreased; also recorded: significant reduction
[2]; [16]
  Motile Rods score, 2 Months: 3 (5×) and 0 (7×) and 4 (2×) and 1 (3×) and 2 (3×) and 6 and 5
[3]
  Host defense mechanisms: enhanced
[4]
  Activities of the CoQ10-dependent enzymes in inflamed dog gingiva: increase
  CoQ10 levels in inflamed dog gingiva: increase
[5]; individual patients, motile rods plus spirochetes scores, 100 mg/day orally
  Total subgingival microorganism score, 2 Months: 6 (6×) and 3 (4×) and 0 (4×) and 8 (3×) and 1 (2×) and 2 and 5 and 7
[5]; of 22 patients, 100 mg orally for two months
  Patients in whom all motile microorganisms in the gingiva disappeared: 4/22 and four
[6]; [15]
  Change of gingival index: decreased
[6]; [17]
  Gingival Index, 2 Months: 0.5 (3×) and 0.7 (3×) and 0.1 (2×) and 0.2 (3×) and 0.3 (3×) and 1.0 (2×) and 1.4 (2×) and 1.1 and 1.3 and 0.4 and 0.8
[6]; mean of 22 patients, S.D. 0.4, before 0.9, p <0.001, 100 mg/day orally
  Gingival Index, 2 Months, Mean: 0.6 +
[7]
  Effectiveness of chloroquin: potentiated
  Parasitemia in the red blood cells: reduced
  Survival time: prolonged
  Survivors: increased
[8]; [18]
  Change of blood level of CoQ10: increased in all of the patients
[8]; 22 patients, before 0.82 + 0.19, p <0.001
  CoQ10 level, 2 months, Mean + S.D.: 1.75 + 0.37 ug/ml
[8]; [19]
  CoQ10 level, 2 months: 1.60 µg/mL and 1.94 µg/mL and 1.59 µg/mL and 2.29 µg/mL and 2.39 µg/mL and 1.16 µg/mL and 1.99 µg/mL and 1.44 µg/mL and 2.37 µg/mL and 1.72 µg/mL and 2.22 µg/mL and 1.30 µg/mL and 2.10 µg/mL and 1.88 µg/mL and 1.65 µg/mL and 1.75 µg/mL and 1.74 µg/mL and 1.90 µg/mL and 1.55 µg/mL and 1.57 µg/mL and 1.26 µg/mL and 1.17 µg/mL
[9]; [18]
  Change of pocket depth: decreased
[9]; [17]
  Pocket Depth, 2 Months: 2.3 mm (3×) and 2.7 mm (2×) and 1.9 mm and 2.4 mm and 2.6 mm (3×) and 2.9 mm (2×) and 2.2 mm and 1.8 mm and 3.6 mm and 3.4 mm and 2.8 mm (2×) and 2.5 mm and 3.0 mm and 4.5 mm and 3.7 mm
[9]; mean of 22 patients, S.D. 0.6, before 3.0, p <0.001, 100 mg/day orally
  Pocket Depth, 2 Months, Mean: 2.8 + mm
[10]; 22 patients, 100 mg orally for two months
  Change of plaque index: did not change; also recorded: no change
[10]; [17]
  Plaque Index, 2 Months: 0.0 (5×) and 0.6 (3×) and 0.3 (2×) and 0.2 (4×) and 0.1 (4×) and 0.4 (3×) and 2.0
[10]; mean of 22 patients, S.D. 0.4, before 0.3, not significant, 100 mg/day orally
  Plaque Index, 2 Months, Mean: 0.3 +
[11]; [18]
  Change of T4/T8 ratio: significantly increased
[11]; 22 patients, before 2.9 + 1.0, p <0.001
  T4/T8 Ratio, 2 months, Mean + S.D.: 3.4 + 1.3
[11]; [19]
  T4/T8 Ratio, 2 months: 2.3 and 3.1 and 2.8 (2×) and 4.9 and 3.5 and 4.0 and 1.9 and 2.7 and 7.1 and 3.7 and 2.0 (2×) and 6.2 and 2.9 and 3.2 (2×) and 3.9 and 3.4 and 2.4 and 3.6 and 3.8
[11]; out of 22
  Patients with evident increase of T4/T8 ratio: 17 patients
[12]; 22 patients, 100 mg orally for two months, p<0.02
  Change of spirochetes: decreased; also recorded: significant reduction
[12]; [16]
  Spirochetes score, 2 Months: 3 (8×) and 0 (7×) and 4 and 1 (3×) and 6 (2×) and 2
[13]; dibenzpyrene tumor model, mice
  Number of survivors: increase
[13]; mice susceptible to dibenzpyrene-induced tumors
  Percentage of mice with tumors: reduction
[13]; mice that developed tumors
  Tumor size or number: reduction
[14]
  Oxygen utilization in inflamed human gingiva: increase
